Data from patent US9365541B2, “Compounds for use in the treatment of parasitic diseases” (IRBM—SCIENCE PARK S.P.A., priority 2012, dated 2016).

Experiments:
[1] = target: T1, human HDAC1 (Homo sapiens, UniProt Q13547); assay: Homo sapiens HDAC1 inhibition assay (Fluor-de-Lys, enzymatic); assay type: biochemical; conditions: human HDAC enzymatic assay; read-out: hHDAC IC50
T1 construct: made in house; host or cells: HeLa (ATCC CCL-2), mammalian cells
Description: Biology Homo sapiens HDAC1 Inhibition Assay Overview:
The aim of the assay is to evaluate the inhibition of the deacetylase activity of human HDAC1. To such goal an acetylated substrate is added to the enzyme mix; the resulting enzymatic product is converted to a fluorescent molecule by the addition the enzyme trypsine (developer solution). Fluorescence intensity is inversely proportional to the rate of inhibition of the enzyme (as indicated in the material section below).
Reagents of the HDAC Fluorescent Activity Assay are purchased from Enzo Life Sciences (http://www.enzolifesciences.com/BML-AK500/fluor-de-lys-hdac-fluorometric-activity-assay-kit/) and feature the Fluor-de-Lys™ Substrate/Developer System.
c) Trichostatin A (TSA) Stock
TSA (Sigma-Aldrich, T8552) is provided as a 10 mM stock solution in 100% dimethylsulfoxide (DMSO).
Diluted Substrate Solution
The final concentration in the assay is 20 μM.
Diluted Developer Solution
2 μM [final] TSA to this solution increases its ability to stop the reaction.
The HDAC1 enzyme is diluted in assay buffer prior to each use from a fresh aliquot of enzyme.
The final concentration in the assay is 1-2 nM.
Test compounds should be prepared in 100% DMSO and transferred to the assay by a nano volume dispenser to reach the appropriate concentration and the appropriate DMSO concentration (0.25%) in the reaction.

[2] = tested on: Plasmodium falciparum 3D7; assay: P. falciparum growth inhibition assay (Pf-LDH); assay type: cell-based; conditions: Plasmodium falciparum, Erythrocyte; P. falciparum 3D7 infected erythrocytes, 72 h incubation, PfLDH readout
Description: Basic culture of Plasmodium falciparum 3D7 parasites (Malaria Research and Reference Reagent Resource Center (MR4), MR4 Number: MRA-102).
Starting with a culture with a parasitemia of about 10% (and 5% hematocrit), 0.5 ml of the culture is placed in a fresh 100 mm petri dish with 0.95 ml of fresh erythrocytes (50% hematocrit) and 8.55 ml of culture medium, giving a new starting parasitemia of 0.5%. The petri dish is then incubated at 37° C. in a humidified gas-tight plastic box flushed with a gas mixture consisting of 93% N2, 4% CO2, and 3% O2. The culture medium is changed daily. The supernatant is removed by gently tipping the dish without disturbing the settled cells and aspirating the medium with a Pasteur pipette connected to a vacuum pump. A small amount of the concentrated cells is taken to prepare a blood smear for determination of the parasitemia. Normally, the cultures are split twice a week. If the parasites are growing very slowly then fresh erythrocytes are added to the culture no later than after 7 days. The cultures are then split 1:2 if the parasitemia is lower than 0.5%. To avoid the necessity of daily medium change on weekends, a culture with a 2.5% hematocrit and 0.1-0.2% parasitemia is set up and can be left for 3 days without medium change.
Standard medium consists of RPMI 1640, supplemented with 25 mM HEPES, 24 mM NaHCO3, 0.36 mM hypoxanthine, 100 μg/ml Neomycin, 5 g/1 Albumax® II, and washed human red blood cells (rbcs) A+.
P. falciparum Growth Inhibition Assay (Pf-LDH)
Compounds of the invention were assessed for in vitro antimalarial activity against a cloroquine sensitive (3D7) strain of the malaria parasite Plasmodium falciparum, using a lactate dehydrogenase (PfLDH) assay.
EC50 Determination by Pf-LDH Assay
384 plates (where compounds to be tested are dispensed) with 25 μl of parasite inoculum (parasitemia: 0.25%, hematocrit: 2%) are incubated at 37° C. in an atmosphere of 4% CO2, 3% O2, 93% N2. After 72 h of incubation, plates are frozen at −70° C. overnight and thawed at room temperature for at least 4 h. To evaluate PfLDH activity, 70 μl of freshly made reaction mix (143 mM sodium L-lactate, 143 μM 3-acetyl pyridine adenine dinucleotide (APAD), 178.75 μM Nitro Blue tetrazolium chloride (NBT), 286 μg/ml diaphorase (2.83 U/ml), 0.7% Tween 20, 100 mM Tris-HCl pH 8.0) is dispensed using a Multidrop Combi dispenser. Plates are shaken to ensure mixing and absorbance at 650 nm is monitored in a plate reader after 10 min of incubation at room temperature.
Negative controls (0% Effect) are produced by addition of DMSO to the proper wells.
Positive controls (100% Effect) are produced by addition of 150 nM Artemisinin (Sigma-Aldrich, 361593)
After result normalization using positive and negative controls, compound potency is determined by fitting the following equation: % inh=Ymin+(Ymax−Ymin)/(1+(X/EC50)^slope)) Where: • Ymin=minimum percentage effect • Ymax=maximum percentage effect • EC50=the concentration of the compound at which 50% effect is reached • Slope=the slope of the curve calculated at the EC50 Histone Hyperacetylation and Immunodetection of Altered Histone Modifications Assay

T1 sequence (Q13547 whole entry): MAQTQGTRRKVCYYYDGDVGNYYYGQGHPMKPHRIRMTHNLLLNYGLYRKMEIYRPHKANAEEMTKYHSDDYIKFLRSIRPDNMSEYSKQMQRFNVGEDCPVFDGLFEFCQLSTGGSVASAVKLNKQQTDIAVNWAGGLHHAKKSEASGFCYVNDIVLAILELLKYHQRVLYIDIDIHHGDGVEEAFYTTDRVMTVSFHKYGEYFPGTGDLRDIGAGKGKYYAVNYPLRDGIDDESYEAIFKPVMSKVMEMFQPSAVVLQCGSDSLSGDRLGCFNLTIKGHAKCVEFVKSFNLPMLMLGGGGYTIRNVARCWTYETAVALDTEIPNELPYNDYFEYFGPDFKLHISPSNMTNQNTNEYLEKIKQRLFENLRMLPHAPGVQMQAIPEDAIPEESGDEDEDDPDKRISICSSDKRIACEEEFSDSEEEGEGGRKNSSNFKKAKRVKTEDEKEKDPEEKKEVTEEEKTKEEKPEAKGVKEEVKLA

Row | Compound | IC50 [1] | EC50 [2]
1 | CNC(=O)CCCCC[C@H](NC(=O)c1cnsn1)c1ncc(-c2ccc3ccccc3c2)[nH]1 [Entry 45, (S)-N-(7-(methylamino)-1-(5-(naphthalen-2-yl)-1H-imidazol-2-yl)-7-oxoheptyl)-1,2,5-thiadiazole-3-carboxamide] | 1000 to 5000 nM | > 5000 nM
2 | CNC(=O)CCCCC[C@H](NC(=O)c1cnsc1)c1ncc(-c2ccc3ccncc3c2)[nH]1 [Entry 46, (S)-N-(1-(5-(isoquinolin-7-yl)-1H-imidazol-2-yl)-7-(methylamino)-7-oxo-heptyl)isothiazole-4-carboxamide] | < 1000 nM | < 1000 nM
3 | CNC(=O)CCCCC[C@H](NC(=O)c1cscn1)c1ncc(-c2ccc3ccncc3c2)[nH]1 [Entry 47, (S)-N-(1-(5-(isoquinolin-7-yl)-1H-imidazol-2-yl)-7-(methylamino)-7-oxoheptyl)thiazole-4-carboxamide] | > 5000 nM | 1000 to 5000 nM
4 | CNC(=O)CCCCC[C@H](NC(=O)C1CC1c1ccncc1)c1ncc(-c2ccc3ccncc3c2)[nH]1 (stereo partly drawn) [Entry 48, N-((S)-1-(5-(isoquinolin-7-yl)-1H-imidazol-2-yl)-7-(methylamino)-7-oxoheptyl)-2-(pyridin-4-yl)cyclopropane-carboxamide] | 1000 to 5000 nM | 1000 to 5000 nM
5 | CNC(=O)CCCCC[C@H](NC(=O)c1cnc(C)s1)c1ncc(-c2ccc3ccncc3c2)[nH]1 [Entry 49, (S)-N-(1-(5-(isoquinolin-7-yl)-1H-imidazol-2-yl)-7-(methylamino)-7-oxoheptyl)-2-methylthiazole-5-carboxamide] | < 1000 nM | < 1000 nM
6 | CNC(=O)CCCCC[C@H](NC(=O)c1cnn(C(C)C)c1)c1ncc(-c2ccc(-c3ccn(C)n3)cc2)[nH]1 [Entry 50, (S)-1-isopropyl-N-(1-(5-(4-(1-methyl-1H-pyrazol-3-yl)phenyl)-1H-imidazol-2-yl)-7-(methylamino)-7-oxoheptyl)-1H-pyrazole-4-carboxamide] | 1000 to 5000 nM | < 1000 nM
7 | CNC(=O)CCCCC[C@H](NC(=O)c1cncs1)c1ncc(-c2cc3ccccc3s2)[nH]1 [Entry 51, (S)-N-(1-(5-(benzo[b]thiophen-2-yl)-1H-imidazol-2-yl)-7-(methylamino)-7-oxoheptyl)thiazole-5-carboxamide] | 1000 to 5000 nM | 1000 to 5000 nM
8 | CNC(=O)CCCCC[C@H](NC(=O)c1cncs1)c1ncc(-c2ccc(C#N)cc2)[nH]1 [Entry 52, (S)-N-(1-(5-(4-cyanophenyl)-1H-imidazol-2-yl)-7-(methylamino)-7-oxoheptyl)thiazole-5-carboxamide] | 1000 to 5000 nM | > 5000 nM
9 | CNC(=O)CCCCC[C@H](NC(=O)c1cncs1)c1ncc(-c2ccc(NC(C)=O)cc2)[nH]1 [Entry 53, (S)-N-(1-(5-(4-acetamidophenyl)-1H-imidazol-2-yl)-7-(methylamino)-7-oxoheptyl)thiazole-5-carboxamide] | 1000 to 5000 nM | 1000 to 5000 nM
10 | CNC(=O)CCCCC[C@H](NC(=O)c1cncs1)c1ncc(-c2cc3cc(OC)ccc3[nH]2)[nH]1 [Entry 54, (S)-N-(1-(5-(5-methoxy-1H-indol-2-yl)-1H-imidazol-2-yl)-7-(methylamino)-7-oxoheptyl)thiazole-5-carboxamide] | 1000 to 5000 nM | 1000 to 5000 nM
11 | COc1nc2ccccc2cc1-c1cnc([C@H](CCCCCC(N)=O)OC(=O)C23CCN(CC2)CC3)o1 [Entry 55] | < 1000 nM | 1000 to 5000 nM
12 | CNC(=O)CCCCC[C@H](OC(=O)C12CCN(CC1)CC2)c1ncc(-c2cc3ccccc3nc2OC)o1 [Entry 56] | < 1000 nM | 1000 to 5000 nM

The remaining lines, values ahead:

Row | IC50 [1] | EC50 [2] | Compound
13 | 1000 to 5000 nM | 1000 to 5000 nM | CNC(=O)CCCCC[C@H](NC(=O)c1cncs1)c1ncc(-c2ccc(Cl)cc2OC)[nH]1 [Entry 57, (S)-N-(1-(5-(4-chloro-2-methoxyphenyl)-1H-imidazol-2-yl)-7-(methylamino)-7-oxoheptyl)thiazole-5-carboxamide]
14 | 1000 to 5000 nM | 1000 to 5000 nM | CNC(=O)CCCCC[C@H](NC(=O)Cn1ccnn1)c1ncc(-c2ccc3ccncc3c2)[nH]1 [Entry 58, (S)-7-(2-(1H-1,2,3-triazol-1-yl)acetamido)-7-(5-(isoquinolin-7-yl)-1H-imidazol-2-yl)-N-methylheptanamide]
15 | 1000 to 5000 nM | 1000 to 5000 nM | CNC(=O)CCCCC[C@H](NC(=O)c1cncs1)c1ncc(-c2ccc(-c3cc(C)[nH]n3)cc2)[nH]1 [Entry 59, (S)-N-(1-(5-(4-(5-methyl-1H-pyrazol-3-yl)phenyl)-1H-imidazol-2-yl)-7-(methylamino)-7-oxoheptyl)thiazole-5-carboxamide]
16 | 1000 to 5000 nM | > 5000 nM | CNC(=O)CCCCC[C@H](NC(=O)c1cncs1)c1ncc(-c2ccc(CN)cc2)[nH]1 [Entry 60, (S)-N-(1-(5-(4-(amino-methyl)phenyl)-1H-imidazol-2-yl)-7-(methylamino)-7-oxoheptyl)thiazole-5-carboxamide]
17 | 1000 to 5000 nM | 1000 to 5000 nM | CNC(=O)CCCCC[C@H](NC(=O)C1CC(=O)Nc2ccccc21)c1ncc(-c2ccc(-n3cccn3)cc2)[nH]1 (stereo partly drawn) [Entry 61, N-((S)-1-(5-(4-(1H-pyrazol-1-yl)phenyl)-1H-imidazol-2-yl)-7-(methylamino)-7-oxoheptyl)-2-oxo-1,2,3,4-tetrahydroquinoline-4-carboxamide]
18 | > 5000 nM | > 5000 nM | CNC(=O)CCCCC[C@H](NC(=O)Cn1ccnn1)c1ncc(-c2ccc(-n3cccn3)cc2)[nH]1 [Entry 62, (S)-7-(2-(1H-1,2,3-triazol-1-yl)acetamido)-7-(5-(4-(1H-pyrazol-1-yl)phenyl)-1H-imidazol-2-yl)-N-methylheptanamide]
19 | 1000 to 5000 nM | 1000 to 5000 nM | CNC(=O)CCCCC[C@H](NC(=O)Cc1nc(-c2ccccc2)cs1)c1ncc(-c2ccc3ccccc3c2)[nH]1 [Entry 63]
20 | > 5000 nM | 1000 to 5000 nM | CNC(=O)CCCCC[C@H](NC(=O)c1cccc(N2CCOCC2)c1)c1ncc(-c2ccc3ccccc3c2)[nH]1 [Entry 64, (S)-N-(7-(methylamino)-1-(5-(naphthalen-2-yl)-1H-imidazol-2-yl)-7-oxoheptyl)-3-morpholino-benzamide]
21 | < 1000 nM | < 1000 nM | CNC(=O)CCCCC[C@H](NC(=O)c1cnc(CN2CCCC2)s1)c1ncc(-c2ccc3ccncc3c2)[nH]1 [Entry 65, (S)-N-(1-(5-(isoquinolin-7-yl)-1H-imidazol-2-yl)-7-(methylamino)-7-oxoheptyl)-2-(pyrrolidin-1-ylmethyl)thiazole-5-carboxamide]
22 | 1000 to 5000 nM | > 5000 nM | CNC(=O)CCCCC[C@H](NC(=O)CN1CCCC1)c1ncc(-c2ccc3ccncc3c2)[nH]1 [Entry 66]
23 | < 1000 nM | < 1000 nM | CNC(=O)CCCCC[C@H](NC(=O)c1ccns1)c1ncc(-c2ccc3ccncc3c2)[nH]1 [Entry 67]
24 | 1000 to 5000 nM | > 5000 nM | CNC(=O)CCCCC[C@H](NC(=O)Cc1nc(C)cs1)c1ncc(-c2ccc3ccncc3c2)[nH]1 [Entry 68]
